Values quoted from earlier work as cited in Sander's compilation of Henry's law constants.

What was measured:
[1] = Henry solubility constant Hcp at 298.15 K (mol/(m3 Pa)); conditions: cited value
[2] = Henry solubility constant Hcp at 310 K (mol/(m3 Pa)); conditions: reference: Nahon et al. (2000); cited value
[3] = Henry solubility constant Hcp at 293 K (mol/(m3 Pa)); conditions: cited value
[4] = Henry solubility constant Hcp at 295 K (mol/(m3 Pa)); conditions: reference: Lee and Zhou (1993); cited value
[5] = reference: Burkholder et al. (2015)
[6] = reference: Burkholder et al. (2019)
[7] = reference: Sander et al. (2011)
[8] = reference: Nicholson et al. (1984)
[9] = reference: Fogg and Sangster (2003)
[10] = reference: Sander et al. (2006)

Structure (SMILES)	Henry solubility constant Hcp ([1]; reference: Brockbank (2013))	Henry solubility constant Hcp [1, 5]	Henry solubility constant Hcp [1, 6]	Henry solubility constant Hcp [1, 7]	Henry solubility constant Hcp [1, 10]	further results
CCOC(C)=O [ethyl ethanoate]	0.065	0.059	0.065	0.059		Henry solubility constant Hcp at 310 K [2]: 0.039
ClC(Cl)Br [bromodichloromethane]		0.004	0.004	0.004	0.004	Henry solubility constant Hcp at 293 K [3, 8]: 0.0047; Henry solubility constant Hcp [1, 9]: 0.0048; Henry solubility constant Hcp ([1]; reference: Goldstein (1982)): 0.0046; Henry solubility constant Hcp [1, 8]: 0.0043
CSC [dimethyl sulfide]	0.0054	0.0053	0.0053	0.0053	0.0053	Henry solubility constant Hcp at 293 K ([3]; reference: Vitenberg et al. (1975)): 0.007; Henry solubility constant Hcp [1, 9]: 0.0052; Henry solubility constant Hcp ([1]; reference: Gaffney and Senum (1984)): 0.0061
O=O [oxygen]		1.3e-05	1.3e-05	1.3e-05	1.3e-05	Henry solubility constant Hcp at 293 K ([3]; reference: Nunn (1958)): 1.4e-05; Henry solubility constant Hcp ([1]; reference: Battino (1981)): 1.3e-05; Henry solubility constant Hcp ([1]; reference: Battino et al. (1983)): 1.3e-05; Henry solubility constant Hcp ([1]; reference: Himmelblau (1960)): 1.2e-05
[Hg] [mercury]		0.0013	0.0013			Henry solubility constant Hcp at 293 K ([3]; reference: WHO (1990)): 0.0014; Henry solubility constant Hcp ([1]; reference: Clever (1987)): 0.0012; Henry solubility constant Hcp ([1]; reference: Clever et al. (1985)): 0.0011; Henry solubility constant Hcp ([1]; reference: Shon et al. (2005)): 0.0012
O=CCO [2-hydroxyethanal]						Henry solubility constant Hcp at 295 K [4]: 990
Cc1cc(C)nc(Nc2ccccc2)n1 [pyrimethanil]						Henry solubility constant Hcp at 293 K ([3]; reference: Tomlin (1998)): 280
CCCCCCCC=O [octanal]	0.02					Henry solubility constant Hcp at 310 K [2]: 0.019
ClC(Br)Br [dibromochloromethane]		0.0086	0.0086	0.0086	0.0086	Henry solubility constant Hcp at 293 K [3, 8]: 0.011; Henry solubility constant Hcp [1, 9]: 0.0087; Henry solubility constant Hcp ([1]; reference: Goldstein (1982)): 0.012; Henry solubility constant Hcp [1, 8]: 0.012
CCCC(=O)OC [methyl butanoate]	0.039					Henry solubility constant Hcp at 310 K [2]: 0.036
C#C [ethyne]		0.00041	0.00041	0.00041	0.00041	Henry solubility constant Hcp at 293 K ([3]; reference: Vtovec (1968)): 0.00044; Henry solubility constant Hcp ([1]; reference: Deno and Berkheimer (1960)): 0.00041; Henry solubility constant Hcp ([1]; reference: Fogg et al. (2002)): 0.00041; Henry solubility constant Hcp ([1]; reference: Schoen (1923)): 0.00041
BrBr [bromine (molecular)]		0.0072	0.0072	0.0072	0.0072	Henry solubility constant Hcp at 293 K ([3]; reference: Giona et al. (1969)): 0.0092; Henry solubility constant Hcp ([1]; reference: Jenkins and King (1965)): 0.0079
CCCC(=O)OCC [ethyl butanoate]	0.025					Henry solubility constant Hcp at 310 K [2]: 0.027
CC(Cc1ccc(C(C)(C)C)cc1)CN1CCCCC1 (stereo not given) [fenpropidin]						Henry solubility constant Hcp at 293 K ([3]; reference: Tomlin (1998)): 0.099
CC(=O)CO [1-hydroxypropanone]						Henry solubility constant Hcp at 295 K [4]: 77
O=COCC(F)(F)F [2,2,2-trifluoroethyl methanoate]		0.0054	0.0054	0.0054		
ClCC(Cl)(Cl)Cl [1,1,1,2-tetrachloroethane]	0.0042	0.0042	0.0042			
c1ccc2c(c1)cc1ccc3cccc4ccc2c1c34 [benzo[a]pyrene]	4.5					Henry solubility constant Hcp ([1]; reference: Goldstein (1982)): 0.0016
